We go through one compound from publication PMC5216742, “Discovery and characterization of a novel potent type II native and mutant BCR-ABL inhibitor (CHMFL-074) for Chronic Myeloid Leukemia (CML)” (Oncotarget, 2016).

Structures are written as SMILES. “Also recorded” adds a separate entry of the source.

What is called GI50 is the concentration that inhibits growth by half. A low value points to more potent growth inhibition. The IC50 is the concentration at which inhibition is half-maximal. One may read the EC50 as the concentration needed to bring the measured effect to its halfway point.

For one data set, the system named is CHO. Put plainly: Anti-proliferation, intact cancer cell lines. In kind it is cell-based, Chinese hamster. The settings on record: Cricetulus griseus, 72 h. On the procedure: The K562 (CML), KU812 (CML), MEG-01 (CML), MV4-11 (AML), MOLM14 (AML), U937 (AML), REC-1 (Human B-cell lymphoma cell), HL-60 (Human promyelocytic leukemia cells), MEC-1(CLL), CHL (Hamster lung cell), CHO (Hamster ovary cell) cell lines were obtained from American Type Culture Collection (Manassas, VA). All the cells were grown in a humidified incubator (Thermo, USA) at 37°C under 5% CO2. CHO cells were maintained in DMEM supplemented with 10% FBS, 1% penicillin/strepto-mycin. MV4-11 (AML) were grown in IMDM supplemented with 10% FBS, 1% penicillin/streptomycin. […] For suspension cells, cells were collected by spinning down at 800 rpm/min for 5 min before use.
A density of 1 × 10^4 to 2.5 × 10^4 cells/mL cells were mixed with various concentrations of compounds then 100 μL suspension was added to each well and incubated for 72 hours. Cell viability was determined using the CellTiter-Glo assay (Promega, USA) or CCK-8 assay (Beboy, China). Both assays were performed according to the manufacturer instructions. For CellTiter-Glo assay, luminescence was determined in a multi-label reader (Envision, PerkinElmer, USA). […] Data were normalized to control group (DMSO). GI50 were calculated using Prism 6.0 (GraphPad Software, San Diego, CA).

In a further data set the target is PDGFRα (Homo sapiens, UniProt P16234). Put plainly: Promega ADP-Glo biochemical kinase assay. The following applies: 100 μM ATP, read-out: IC50 against PDGFRα. On the procedure:
(§1) The ADP-Glo™ kinase assay (Promega, USA) was used to screen CHMFL-074 for its PDGFRα/PDGFRβ inhibition effects. […] The reaction in each tube was started immediately by adding ATP and kept going for an hour under 37°C. After the tube cooled for 5 minutes at room temperature, 5 μL solvent reactions were carried out in a 384-well plate. Then 5 μL of ADP-Glo™ reagent was added into each well to stop the reaction and consume the remaining […] within 40 minutes. […] Luminescence signal was measured with an automated plate reader (Envision, USA) and the dose-response curve was fitted using Prism 5.0 (GraphPad Software Inc., San Diego, CA).
On the technique in general: In ADP-Glo the light output rises with the ADP produced.

The target of the next data set is PDGFRβ (Homo sapiens, UniProt P09619). Nature of the data set: Promega ADP-Glo biochemical kinase assay. The following applies: 100 μM ATP, read-out: IC50 against PDGFRβ. Here is the method: as §1
The target of data set [1] is T1, ABL1(M351T)-phosphorylated (Homo sapiens, UniProt P00519, M351T).
T1 construct: purchased DiscoveRx (KinomeScan service)
Nature of the data set: KinomeScan profiling. Format: binding. The settings on record: 1 µM CHMFL-074; read-out: % Control.

The target of data set [2] is T2, ABL1(E255K)-phosphorylated (Homo sapiens, UniProt P00519, E255K).
T2 construct: purchased DiscoveRx (KinomeScan service)
Put plainly: KinomeScan profiling. The following applies: 1 µM CHMFL-074; read-out: % Control. In kind it is binding.

The next data set relates to K562 tumor xenografts. Nature of the data set: K562 xenograft tumor model. In kind it is in vivo. The source says: Five-week old female nu/nu mice were purchased from the Shanghai Experimental Center, Chinese Science Academy (Shanghai, China). All animals were housed in a specific pathogen-free facility and used according to the animal care regulations of Hefei Institutes of Physical Science Chinese Academy of Sciences. Prior to implantation, cells were harvested during exponential growth. Five million K562 cells in PBS were formulated as a 1:1 mixture with Matrigel (BD Biosciences) and injected into the subcutaneous space on the right flank of nu/nu mice. Daily oral administration was initiated when K562 tumors had reached a size of 200 to 300 mm^3. Animals were then randomized into treatment groups of 6 mice each for efficacy studies. CHMFL-074 was delivered daily in a HKI solution (0.5% Methocellulose/0.4% Tween 80 in dd H2O) by orally gavage. Body weight was measured daily and tumor growth was measured every day after CHMFL-074 treatment. Tumor volumes were calculated as follows: tumor volume (mm^3) = [(W^2 × L)/2] in which width (W) is defined as the smaller of the two measurements and length (L) is defined as the larger of the two measurements.

The next data set deals with T3, BCR-ABL (Homo sapiens, UniProt P00519).
T3 construct: BCR N-terminal part (natural fusion partner of p210 BCR-ABL); endogenous in cells; host or cells: K562
Nature of the data set: BCR-ABL auto-phosphorylation (Y245) immunoblotting in K562 cells. Format: cell-based. On the procedure:
Cells were washed with ice cold phosphate buffered saline (PBS), lysed using radio-immunoprecipitation (RIPA) buffer [150 mM NaCl, 1% (vol/vol) Nonidet P-40, 0.5% (wt/vol) sodium deoxycholate, 0.1% (wt/vol) SDS] in 50 mM Tris HCl (pH 8.0) supplemented with protease and phosphatase inhibitors (Thermo, USA). Protein concentrations were determined using the BCA Protein Assay kit (Beyotime, China) according to the manufacturer's protocol. Proteins were separated by SDS-PAGE and transferred to an Immobilon-P PVDF membrane (Millipore, USA), and blocked in 5% dry milk in Tris Buffered Saline, with Tween 20 (TBST). Membranes were incubated with primary and secondary antibodies, and target proteins were detected with ECL detection reagent (Pierce, USA). β-Actin (Sigma-Aldrich) served as a loading control. Phospho-c-Abl (Tyr245)(73E5) Rabbit mAb (2868), c-Abl antibody (2862), STAT5 (3H7) Rabbit mAb (9358), Phospho-STAT5 (Tyr694)(C71E5) Rabbit mAb (9314), Akt (pan)(C67E7) Rabbit mAb (4691), Phospho-Akt (Thr308) (244F9) Rabbit mAb (4056), Phospho-Akt (Ser473) (D9E) XP® Rabbit mAb (4060), Phospho-CrkL (Tyr207) antibody (3181), CrkL (32H4) Mouse mAb (3182), Phospho-p44/42 MAPK (Erk1/2) (Thr202/Tyr204) (197G2) Rabbit mAb (4377), p44/42 MAPK (Erk1/2) (137F5) Rabbit mAb (4695) antibodies were obtained from Cell Signaling Technology (MA, USA).

Chain of PDGFRα (P16234 24-1089): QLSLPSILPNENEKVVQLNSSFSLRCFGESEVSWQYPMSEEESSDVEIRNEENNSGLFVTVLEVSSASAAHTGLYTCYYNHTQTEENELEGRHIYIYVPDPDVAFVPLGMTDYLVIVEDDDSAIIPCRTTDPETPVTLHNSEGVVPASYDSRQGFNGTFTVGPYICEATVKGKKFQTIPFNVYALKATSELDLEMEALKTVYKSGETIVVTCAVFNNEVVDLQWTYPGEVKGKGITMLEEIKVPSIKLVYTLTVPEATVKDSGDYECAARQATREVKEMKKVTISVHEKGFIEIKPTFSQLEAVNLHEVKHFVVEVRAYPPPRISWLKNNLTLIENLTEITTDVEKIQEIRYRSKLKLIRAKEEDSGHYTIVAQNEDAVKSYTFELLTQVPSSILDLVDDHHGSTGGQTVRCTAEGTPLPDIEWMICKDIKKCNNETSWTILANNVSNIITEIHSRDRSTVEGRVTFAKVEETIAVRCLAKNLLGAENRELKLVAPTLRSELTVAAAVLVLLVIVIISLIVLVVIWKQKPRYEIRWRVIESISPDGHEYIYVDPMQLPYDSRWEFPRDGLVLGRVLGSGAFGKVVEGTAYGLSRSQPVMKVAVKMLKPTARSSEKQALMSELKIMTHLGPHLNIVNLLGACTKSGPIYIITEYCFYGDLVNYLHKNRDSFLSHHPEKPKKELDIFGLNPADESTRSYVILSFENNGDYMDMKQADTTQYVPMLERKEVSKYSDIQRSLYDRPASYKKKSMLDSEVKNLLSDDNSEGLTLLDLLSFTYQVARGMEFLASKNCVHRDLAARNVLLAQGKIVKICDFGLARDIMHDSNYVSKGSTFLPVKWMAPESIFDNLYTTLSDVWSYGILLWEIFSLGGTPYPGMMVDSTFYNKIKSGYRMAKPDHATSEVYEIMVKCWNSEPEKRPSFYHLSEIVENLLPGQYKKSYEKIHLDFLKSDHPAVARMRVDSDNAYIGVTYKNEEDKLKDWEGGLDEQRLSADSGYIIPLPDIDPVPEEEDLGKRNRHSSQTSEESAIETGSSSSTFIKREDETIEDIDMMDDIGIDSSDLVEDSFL
Chain of PDGFRβ (P09619 33-1106): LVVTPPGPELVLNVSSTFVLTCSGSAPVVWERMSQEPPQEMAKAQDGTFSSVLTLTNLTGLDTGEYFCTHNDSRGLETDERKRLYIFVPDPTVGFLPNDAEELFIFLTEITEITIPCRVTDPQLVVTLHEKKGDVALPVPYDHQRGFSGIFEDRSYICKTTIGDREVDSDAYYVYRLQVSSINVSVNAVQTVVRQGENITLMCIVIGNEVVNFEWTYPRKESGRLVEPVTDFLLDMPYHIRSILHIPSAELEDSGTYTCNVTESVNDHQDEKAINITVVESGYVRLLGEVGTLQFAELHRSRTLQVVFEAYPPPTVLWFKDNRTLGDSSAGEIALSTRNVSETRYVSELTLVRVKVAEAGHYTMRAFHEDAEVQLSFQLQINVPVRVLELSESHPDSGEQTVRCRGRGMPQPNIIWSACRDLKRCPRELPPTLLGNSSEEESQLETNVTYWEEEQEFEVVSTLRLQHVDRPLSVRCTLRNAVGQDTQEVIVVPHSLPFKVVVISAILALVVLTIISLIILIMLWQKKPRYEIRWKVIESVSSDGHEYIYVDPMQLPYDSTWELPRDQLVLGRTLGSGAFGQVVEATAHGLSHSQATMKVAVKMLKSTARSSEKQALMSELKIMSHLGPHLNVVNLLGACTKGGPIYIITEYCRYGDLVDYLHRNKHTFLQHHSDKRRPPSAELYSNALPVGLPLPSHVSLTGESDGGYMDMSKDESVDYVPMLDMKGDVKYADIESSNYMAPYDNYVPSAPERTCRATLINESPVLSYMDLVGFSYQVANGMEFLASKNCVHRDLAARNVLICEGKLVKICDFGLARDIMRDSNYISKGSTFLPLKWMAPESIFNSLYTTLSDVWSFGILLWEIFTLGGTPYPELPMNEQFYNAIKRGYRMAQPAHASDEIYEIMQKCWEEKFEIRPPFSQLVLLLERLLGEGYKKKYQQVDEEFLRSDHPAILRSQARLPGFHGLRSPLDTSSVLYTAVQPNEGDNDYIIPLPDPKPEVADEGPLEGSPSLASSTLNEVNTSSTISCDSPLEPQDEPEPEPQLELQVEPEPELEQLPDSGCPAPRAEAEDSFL

In turn, `Cc1ccc(NC(=O)c2ccc(CN3CCN(C)CC3)c(C(F)(F)F)c2)cc1OC1CCN(C(=O)c2cccnc2)CC1` [CHMFL-074] gave a GI50 in the data set on CHO greater than 10000 nM. Moreover, the IC50 at PDGFRα turned out to be 71 nM; at PDGFRβ it was 88 nM. Besides, the remaining binding at 1 µM in data set [1] was 1%; in data set [2] it was 0.3%. Further, the “TGI (tumor growth inhibition)” value in the data set with K562 tumor xenografts (100 mg/kg/d oral, 12-day treatment) is recorded as 65%. The “toxicity in xenograft mice” value with K562 tumor xenografts (100 mg/kg/day oral) is listed as “without exhibiting apparent toxicity; also recorded: no apparent toxicity was observed”. On BCR-ABL, this compound displayed an EC50 of less than 100 nM.
